The results in this text go back to article PMC6505943, “Identification of a potential allosteric site of Golgi α-mannosidase II using computer-aided drug design” (PLoS ONE, 2019).

The subject of test [1] is β-glucosidase of sweet almonds. The test can be described thus: selectivity enzyme assay with β-glucosidase of sweet almonds (4-MU-Glc substrate). In kind it is biochemical. As to the method:
(§1) Inhibition assays with dGMII were performed at pH 5.75 in MES buffer (40 mM), supplemented with bovine serum albumin 1.1% (0.1% final concentration in MES buffer) and ZnSO4-solution 1.1% (0.1% final concentration in MES buffer). The recombinantly expressed and purified enzyme was added to a final concentration of 0.002 mg/mL per well. 4-Methylumbellifer-7-yl-α-D-mannopyranoside (4-MU-Man) was synthesized (S1 File and S2 Fig) and used as substrate with a final concentration of 1 mM per well. The total reaction volume was 50 μL and the mixture was incubated at 37°C for five minutes. […] The release of 4-methylumbelliferone was measured for 15 min by fluorescence spectroscopy using Greiner 96 Flat Bottom Black Polystyrol plates and a Tecan Reader Infinite F200 PRO equipped with a filter system (355 nm excitation and 485 nm emission). Assays in order to investigate the selectivity of compounds between different mannosidases were carried out on JBM. Assays concerning the selectivity between the desired mannosidase inhibition and a potential glucosidase inhibition were carried out on the β-glucosidase of sweet almonds using 4-methylumbelliferyl-β-D-glucopyranoside (4-MU-Glc) as substrate. The substrate 4-MU-Glc was synthesized as described in the supplementary information (S1 File and S3 Fig). JBM and β-glucosidase from sweet almonds were purchased from Sigma Aldrich. […]

Test [2] addresses T1, Golgi α-mannosidase II from Drosophila melanogaster (dGMII) (Drosophila melanogaster, UniProt Q24451).
T1 construct: His tag; made in house; host or cells: Drosophila Schneider 2 (S2) cells, secreted into the medium
T1 sequence (Q24451 76-1108 limits assumed): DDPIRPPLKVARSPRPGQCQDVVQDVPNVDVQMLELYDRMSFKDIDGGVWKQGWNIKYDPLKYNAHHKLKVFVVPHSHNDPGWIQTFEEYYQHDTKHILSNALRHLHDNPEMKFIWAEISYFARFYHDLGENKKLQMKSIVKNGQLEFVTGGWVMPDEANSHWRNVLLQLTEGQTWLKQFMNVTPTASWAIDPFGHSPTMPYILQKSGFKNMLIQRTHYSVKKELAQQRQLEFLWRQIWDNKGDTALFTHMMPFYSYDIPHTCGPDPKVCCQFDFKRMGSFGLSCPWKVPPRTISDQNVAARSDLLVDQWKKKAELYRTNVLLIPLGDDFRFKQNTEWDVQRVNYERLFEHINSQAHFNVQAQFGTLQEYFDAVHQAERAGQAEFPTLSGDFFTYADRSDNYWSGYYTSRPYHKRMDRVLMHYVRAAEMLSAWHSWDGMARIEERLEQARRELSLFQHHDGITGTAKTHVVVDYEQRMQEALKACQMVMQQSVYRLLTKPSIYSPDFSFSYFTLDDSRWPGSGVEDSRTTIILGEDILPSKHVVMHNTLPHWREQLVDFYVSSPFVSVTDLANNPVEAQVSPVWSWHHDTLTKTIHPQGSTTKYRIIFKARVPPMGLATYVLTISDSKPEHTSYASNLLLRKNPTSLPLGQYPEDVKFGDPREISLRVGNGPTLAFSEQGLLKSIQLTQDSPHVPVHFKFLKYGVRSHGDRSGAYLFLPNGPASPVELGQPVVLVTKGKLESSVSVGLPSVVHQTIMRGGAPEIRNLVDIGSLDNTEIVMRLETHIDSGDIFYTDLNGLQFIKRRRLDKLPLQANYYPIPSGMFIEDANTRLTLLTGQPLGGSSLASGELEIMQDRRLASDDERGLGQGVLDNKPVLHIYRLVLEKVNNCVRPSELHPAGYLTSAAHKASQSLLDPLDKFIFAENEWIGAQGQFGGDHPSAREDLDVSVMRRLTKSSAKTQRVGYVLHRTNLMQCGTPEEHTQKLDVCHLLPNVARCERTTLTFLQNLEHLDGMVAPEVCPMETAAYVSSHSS
The test can be described thus: fluorometric enzyme inhibition assay with dGMII (4-MU-Man substrate). In kind it is biochemical. As to conditions: for inhibition at 300 µM: at 300 μM compound, 1 mM 4-MU-Man, pH 5.75. On the procedure: Inhibition assays with dGMII were performed at pH 5.75 in MES buffer (40 mM), supplemented with bovine serum albumin 1.1% (0.1% final concentration in MES buffer) and ZnSO4-solution 1.1% (0.1% final concentration in MES buffer). The recombinantly expressed and purified enzyme was added to a final concentration of 0.002 mg/mL per well. 4-Methylumbellifer-7-yl-α-D-mannopyranoside (4-MU-Man) was synthesized (S1 File and S2 Fig) and used as substrate with a final concentration of 1 mM per well. The total reaction volume was 50 μL and the mixture was incubated at 37°C for five minutes. […] The release of 4-methylumbelliferone was measured for 15 min by fluorescence spectroscopy using Greiner 96 Flat Bottom Black Polystyrol plates and a Tecan Reader Infinite F200 PRO equipped with a filter system (355 nm excitation and 485 nm emission). Assays in order to investigate the selectivity of compounds between different mannosidases were carried out on JBM. Assays concerning the selectivity between the desired mannosidase inhibition and a potential glucosidase inhibition were carried out on the β-glucosidase of sweet almonds using 4-methylumbelliferyl-β-D-glucopyranoside (4-MU-Glc) as substrate. The substrate 4-MU-Glc was synthesized as described in the supplementary information (S1 File and S3 Fig). JBM and β-glucosidase from sweet almonds were purchased from Sigma Aldrich. The enzyme β-glucosidase from sweet almonds was diluted in citrate buffer in order to obtain a concentration of 0.04 mg/mL. The inhibition assays were carried out at a pH of 5.0 in citrate buffer (20 mM). The substrate concentration was chosen to be 1 mM per well in accordance with the results of several KM value determinations since this concentration ensures good enzyme activity (KM = 1.9 ± 0.1 mM). Inhibition assays JBM were performed in the same buffer as for dGMII. The final concentration of the enzyme per well was 0.003 mg/ml. The substrate 4-MU-Man was used with a final concentration of 0.4 mM per well. The conducted assays with JBM and the β-glucosidase from sweet almonds were performed as described for dGMII.
The most promising compounds according to the molecular modeling studies were tested at 300 μM final concentration except for compound 24 which was tested at 100 μM per well due to the small amount available. […] The inhibition was calculated with the following Eq (2): Inhibition(%)=(1−activity(withinhibitor)/activity(withoutinhibitor))∙100 (2)
KM values were calculated using the Michaelis-Menten kinetics Eq (3) v=vmax[S]/KM+[S] (3) whereby vmax is the maximal velocity, [S] the substrate concentration and KM the substrate concentration yielding a velocity of vmax/2.
IC50 values were calculated using following Eq (4): y=ymax−ymin/1+([I]/IC50)^S+ymin (4) whereby ymax is defined as 100% enzyme activity, ymin as 0% enzyme activity, s is defined as the slope of the linear part of the curves (Hill coefficient), and [I] represents the inhibitor concentration. For the KM value determination, substrate concentrations ranging from 0.4 to 8.0 mM for dGMII and from 0.008 to 1.6 mM for JBM were used. For the IC50 determination of swainsonine, concentrations ranging from 6 to 120 nM were applied. […] The program GraFit (5.0.13, Erithacus Software, Horley, Surrey, UK (2006)) was used to calculate the IC50 values.

The target of a further test is T2, JBM (Canavalia ensiformis, UniProt C0HJB3).
T2 construct: purchased Sigma Aldrich
T2 sequence (C0HJB3 1-562 limits assumed): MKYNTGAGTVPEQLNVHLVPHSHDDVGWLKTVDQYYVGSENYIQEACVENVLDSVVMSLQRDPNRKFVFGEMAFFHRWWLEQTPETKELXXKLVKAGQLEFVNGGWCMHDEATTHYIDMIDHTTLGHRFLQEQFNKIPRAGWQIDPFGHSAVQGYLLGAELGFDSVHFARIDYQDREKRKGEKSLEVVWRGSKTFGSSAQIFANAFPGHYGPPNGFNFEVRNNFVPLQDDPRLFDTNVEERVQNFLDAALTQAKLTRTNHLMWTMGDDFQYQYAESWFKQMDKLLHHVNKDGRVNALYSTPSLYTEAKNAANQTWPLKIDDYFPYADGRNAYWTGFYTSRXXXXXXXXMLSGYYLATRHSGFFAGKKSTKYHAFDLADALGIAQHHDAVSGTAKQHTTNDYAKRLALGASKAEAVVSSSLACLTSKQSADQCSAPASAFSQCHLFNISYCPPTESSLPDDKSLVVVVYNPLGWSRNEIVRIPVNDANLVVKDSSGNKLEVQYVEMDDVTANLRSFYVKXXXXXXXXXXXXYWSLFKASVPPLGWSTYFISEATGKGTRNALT
T2 sequence (C0HJB3 563-981 limits assumed): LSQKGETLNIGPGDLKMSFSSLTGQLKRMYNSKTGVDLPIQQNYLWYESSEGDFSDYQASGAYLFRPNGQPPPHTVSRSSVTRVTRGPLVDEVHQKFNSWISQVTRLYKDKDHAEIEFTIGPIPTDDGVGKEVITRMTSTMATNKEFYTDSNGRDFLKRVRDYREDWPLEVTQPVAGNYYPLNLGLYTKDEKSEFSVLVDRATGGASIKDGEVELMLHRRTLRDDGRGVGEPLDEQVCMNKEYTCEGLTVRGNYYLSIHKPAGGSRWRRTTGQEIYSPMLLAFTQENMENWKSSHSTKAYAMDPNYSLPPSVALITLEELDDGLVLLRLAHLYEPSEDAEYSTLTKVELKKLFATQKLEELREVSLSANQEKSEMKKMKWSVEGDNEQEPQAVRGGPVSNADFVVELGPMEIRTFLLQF
The test can be described thus: selectivity enzyme assay with JBM (4-MU-Man substrate). In kind it is biochemical, Jack bean. As to the method:
as §1, with “Fig).” for “Fig). JBM and β-glucosidase from sweet almonds were purchased from Sigma Aldrich.”
KM values were calculated using the Michaelis-Menten kinetics Eq (3) v=vmax[S]/KM+[S] […]

The inhibition is the share of the control response that was lost under treatment. One may read the IC50 as the concentration that gives 50% inhibition. A word on the Km: it is the substrate concentration at which the rate is half of its maximum.

“Also recorded” adds a separate entry of the source. Where two headings read alike, the source gives them in different places.

`N#CC(C(=O)C1CCCCN1C(=O)c1cccnc1)c1ccccn1` (centres unmarked) [Compound 18]: in test [1] (at 300 μM, 1 mM 4-MU-Glc, pH 5.0), the “inhibition of the β-glucosidase of sweet almonds” value is “no significant inhibition; also recorded: did not exhibit significant inhibition”. For the same molecule, the mode of inhibition result in test [2] (IC50 at varying substrate concentrations 0.1 to 3 mM) is listed as “non-competitive inhibition”. Further, the inhibition at 300 µM in test [2] was roughly 46%; on JBM (at 300 μM, 0.4 mM 4-MU-Man), 70%. The ligand efficiency entry in test [2] (based on the inhibitory activity observed in the fluorometric assay) is reported as “approximately 0.20 kcal/mol”. In test [2] (dGMII, 4-MU-Man substrate, read-out: IC50), the IC50 is 217 ± 44.3 µM.
Consider `Cc1cc(=O)oc2cc(O[C@H]3O[C@H](CO)[C@@H](O)[C@H](O)[C@@H]3O)ccc12` [4-MU-Man, 4-Methylumbellifer-7-yl-α-D-mannopyranoside, reference compound], for which the Km in test [2] (substrate of dGMII) is 3600 ± 300 µM; at JBM (substrate of JBM), 600 ± 60 µM.
Turning to `O[C@H]1[C@H]2[C@H](O)CCCN2C[C@H]1O` [swainsonine, reference compound], the IC50 in test [2] stood at 0.034 ± 0.0014 µM.
In the case of `O=C(Cc1ccn[nH]1)NC[C@@H](O)c1cc2ccccc2s1` [Compound 20], the inhibition at 300 µM in test [2] was roughly 41%.
On to `Cc1cc(=O)oc2cc(O[C@@H]3O[C@H](CO)[C@@H](O)[C@H](O)[C@H]3O)ccc12` [4-MU-Glc, 4-methylumbelliferyl-β-D-glucopyranoside, reference compound], for which the Km in test [1] (substrate of β-glucosidase from sweet almonds) came out at 1900 ± 100 µM.
